Measured values published in patent publication US11136311B2, “Heteroaromatic derivatives as NIK inhibitors” (Janssen Pharmaceutica NV, priority 2016, dated 2021).

Key:
[1] = test system: JJN-3 cells; experiment: Antiproliferative activity on JJN-3 (NIK translocated) multiple myeloma cells (CellTiter-Glo); format: cell-based, human; conditions: Homo sapiens, JJN-3, 96 h, JJN-3 (NIK translocated) cells, 96 hr; averaged values; read-out: JJN-3 Proliferation inhibition (IC50 (nM))
Procedure: (§1) Determination of antiproliferative activity on JJN-3 (NIK translocated) and KMS12-BM (NIK WT) multiple myeloma cells
(§2) All compounds tested were dissolved in DMSO and further dilutions were made in culture medium. Final DMSO concentration was 0.3% (v/v) in cell proliferation assays. Viability was assessed using CellTiter-Glo cell viability assay kit (Promega). The human JJN-3 and KMS12-BM cells (DSMZ) were cultured in RPMI 1640 medium supplemented with 2 mM L-glutamine, and 10% fetal calf serum (PAA). Cells were routinely kept as suspension cells at 37° C. in a humidified 5% CO2 atmosphere. Cells were passaged at a seeding density of 0.2×10^6/ml twice a week. Cells were seeded in black tissue culture treated 96-well plates (Perkin Elmer). Densities used for plating ranged from 15000 (JJN3) to 20000 (KMS12BM) cells per well in a total volume of 135 μl medium. Drugs and/or solvents were added (15 μl) to a final volume of 150 μl. Following 96 hr of treatment, plates were removed from the incubator and allowed to equilibrate to room temperature for approx 10 min. 75 μl CellTiter-Glo reagent was added to each well that was then covered (Perkin Elmer Topseal) and shaken on plate shaker for 10 min. Luminescence was measured on a HTS Topcount (Perkin Elmer). Within an experiment, the results for each treatment were the mean of 2 replicate wells. For initial screening purposes, compounds were tested using a 9 point dilution curve (serial 1:3 dilutions). For each experiment, controls (containing no drug) and a blank incubation (containing cells read at the time of compound addition) were run in parallel. The blank value was subtracted from all control and sample values. For each sample, the mean value for cell growth (in relative light units) was expressed as a percentage of the mean value for cell growth of the control.

[2] = target: recombinant human NF-kappaB-inducing kinase (NIK/MAP3K14) (Homo sapiens (Human), UniProt Q99558); experiment: Inhibition of auto-phosphorylation of recombinant human NIK/MAP3K14 activity (AlphaScreen); format: biochemical; conditions: averaged values over all measurements on all batches
Procedure: Inhibition of auto-phosphorylation of recombinant human NF-kappaB-inducing kinase (NIK/MAP3K14) activity (AlphaScreen®)
NIK/MAP3K14 auto-phosphorylation activity was measured using the AlphaScreen® (αscreen) format (Perkin Elmer). All compounds tested were dissolved in dimethyl sulfoxide (DMSO) and further dilutions were made in assay buffer. Final DMSO concentration was 1% (v/v) in assays. Assay buffer was 50 mM Tris pH 7.5 containing 1 mM EGTA (ethylene glycol tetraacetic acid), 1 mM DTT (dithiothreitol), 0.1 mM Na3VO4, 5 mM MgCl2, 0.01% Tween® 20. Assays were carried out in 384 well Alphaplates (Perkin Elmer). Incubations consisted of compound, 25 microM Adenosine-5′-triphosphate (ATP), and 0.2 nM NIK/MAP3K14. Incubations were initiated by addition of GST-tagged NIK/MAP3K14 enzyme, carried out for 1 h at 25° C. and terminated by addition of stop buffer containing anti-phospho-IKK Ser176/180 antibody. Protein A Acceptor and Glutathione-Donor beads were added before reading using an EnVision® Multilabel Plate Reader (Perkin Elmer). Signal obtained in the wells containing blank samples was subtracted from all other wells and IC50's were determined by fitting a sigmoidal curve to % inhibition of control versus Log10 compound concentration.

[3] = test system: KMS12-BM cells; experiment: Antiproliferative activity on KMS12-BM (NIK WT) multiple myeloma cells (CellTiter-Glo); format: cell-based, human; conditions: Homo sapiens, KMS-12-BM, 96 h, KMS12-BM (NIK WT) cells, 96 hr; averaged values; read-out: KMS-12 Proliferation inhibition (IC50 (nM))
Procedure: as §1, §2

Sequence of recombinant human NF-kappaB-inducing kinase (NIK/MAP3K14) (Q99558 whole entry): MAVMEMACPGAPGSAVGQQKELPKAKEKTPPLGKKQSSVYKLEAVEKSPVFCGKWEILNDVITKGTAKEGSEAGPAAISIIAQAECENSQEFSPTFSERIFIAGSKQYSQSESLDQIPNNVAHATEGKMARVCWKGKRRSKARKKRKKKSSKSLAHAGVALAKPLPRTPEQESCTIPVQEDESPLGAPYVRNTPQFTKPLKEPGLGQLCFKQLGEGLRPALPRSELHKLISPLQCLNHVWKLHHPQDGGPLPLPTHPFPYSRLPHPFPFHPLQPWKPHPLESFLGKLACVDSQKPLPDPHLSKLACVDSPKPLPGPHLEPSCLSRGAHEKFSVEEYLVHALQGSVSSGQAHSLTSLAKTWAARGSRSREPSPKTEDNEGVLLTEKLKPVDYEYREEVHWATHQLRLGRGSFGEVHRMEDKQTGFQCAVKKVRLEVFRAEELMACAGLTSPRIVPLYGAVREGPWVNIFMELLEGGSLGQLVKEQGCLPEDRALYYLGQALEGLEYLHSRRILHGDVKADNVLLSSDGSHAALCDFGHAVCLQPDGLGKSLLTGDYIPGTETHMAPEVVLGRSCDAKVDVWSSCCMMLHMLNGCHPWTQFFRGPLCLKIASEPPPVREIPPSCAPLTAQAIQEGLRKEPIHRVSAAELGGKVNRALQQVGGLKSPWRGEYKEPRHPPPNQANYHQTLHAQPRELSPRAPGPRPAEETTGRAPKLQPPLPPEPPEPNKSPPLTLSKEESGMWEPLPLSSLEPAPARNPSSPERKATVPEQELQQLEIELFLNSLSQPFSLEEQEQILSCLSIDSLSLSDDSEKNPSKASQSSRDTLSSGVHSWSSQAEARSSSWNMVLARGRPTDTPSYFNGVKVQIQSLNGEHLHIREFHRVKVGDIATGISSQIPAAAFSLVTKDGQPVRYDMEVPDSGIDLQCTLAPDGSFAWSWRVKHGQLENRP

Compound | IC50 [1] [nM] | IC50 [2] [nM] | IC50 [3] [nM]
Cn1nc(Nc2nccc(-c3cc(C#N)c4c(c3)C(C)(CO)CN4)n2)cc1C(=O)N1CCC(F)(F)CC1 (stereo not drawn) [Compound 22] | 2340 | 18 | > 10000
COCCCn1ccc(Nc2nccc(-c3cc(C#N)c4c(c3)C(C)(CO)CN4)n2)n1 (stereo not drawn) [Compound 23] | 295 | 4.9 | 3890
CC(C)n1nccc1Nc1nccc(-c2cc(C#N)c3c(c2)C(C)(CO)CN3)n1 (stereo not drawn) [Compound 24] | 646 | 10 | > 10000
Cn1nc(C(=O)NC2CCOCC2)cc1Nc1nccc(-c2cc(C#N)c3c(c2)C(C)(CO)CN3)n1 (stereo not drawn) [Compound 25] | 1900 | 8.1 | 1510
Cn1nc(Nc2nccc(-c3cc(C#N)c4c(c3)C(C)(CO)CN4)n2)cc1C1(C)COC1 (stereo not drawn) [Compound 26] | 457 | 10 | ~2950
COCCCn1nccc1Nc1nccc(-c2cc(C#N)c3c(c2)C(C)(CO)CN3)n1 (stereo not drawn) [Compound 27] | 389 | 13 | ~4570
Cn1nc(C(=O)N2CCC(F)(F)CC2)cc1Nc1nccc(-c2cc(C#N)c3c(c2)C(C)(CO)CN3)n1 (stereo not drawn) [Compound 28] | 2570 | ~17 | > 10000
Cn1nc(Nc2nccc(-c3cc(C#N)c4c(c3)C(C)(CO)CN4)n2)cc1C1CC1 (stereo not drawn) [Compound 29] | ~603 | 4.4 | 1440
CC1(CO)CNc2c(C#N)cc(-c3ccnc(Nc4cnn(CC(F)F)c4)n3)cc21 (stereo not drawn) [Compound 30] | 47 | 3.2 | ~170
CC(C)n1ccc(Nc2nccc(-c3cc(C#N)c4c(c3)[C@](C)(CO)CN4)n2)n1 [Compound 31] | 589 | 14 | > 10000
Cn1cc(Cl)c(Nc2nccc(-c3cc(C#N)c4c(c3)C(C)(CO)CN4)n2)n1 (stereo not drawn) [Compound 32] | 7760 | 27 | > 10000
Cn1ccc(Nc2nccc(-c3cc(C#N)c4c(c3)[C@](C)(CO)CN4)n2)n1 [Compound 34] | 1180 | 10 | ~10000
Cc1c(Nc2nccc(-c3cc(C#N)c4c(c3)C(C)(CO)CN4)n2)cnn1C (stereo not drawn) [Compound 36] | 174 | 2.6 | 7590
CN1CCC(n2ccc(Nc3nccc(-c4cc(C#N)c5c(c4)[C@@](C)(CO)CN5)n3)n2)CC1 [Compound 37] | 162 | 2 | 182
CN1CCC(n2nccc2Nc2nccc(-c3cc(C#N)c4c(c3)[C@@](C)(CO)CN4)n2)CC1 [Compound 38] | 3980 | 47 | 3890
Cn1nc(Nc2nccc(-c3cc(C#N)c4c(c3)[C@@](C)(CO)CN4)n2)cc1CN1CCOCC1 [Compound 39] | 1440 | 32 | > 10000
C[C@]1(CO)CNc2c(C#N)cc(-c3ccnc(Nc4ccn(CC5CC5)n4)n3)cc21 [Compound 40] | 295 | 2.2 | 562
Cn1nc(Cl)cc1Nc1nccc(-c2cc(C#N)c3c(c2)[C@@](C)(CO)CN3)n1 [Compound 41] | 78 | 2.1 | ~479
Cn1nc(Nc2nccc(-c3cc(C#N)c4c(c3)[C@@](C)(CO)CN4)n2)cc1Cl [Compound 43] | 234 | 2.6 | 933
CCOCCn1nc(C)cc1Nc1nccc(-c2cc(C#N)c3c(c2)[C@@](C)(CO)CN3)n1 [Compound 44] | 324 | 4.5 | 8710
CN(C)C(=O)c1cc(Nc2nccc(-c3cc(C#N)c4c(c3)[C@@](C)(CO)CN4)n2)nn1C [Compound 45] | 1320 | 7.6 | 4170
COCCCn1nccc1Nc1nccc(-c2cc(C#N)c3c(c2)[C@@](C)(CO)CN3)n1 [Compound 46] | 158 | 6.6 | 2400

Other lines, results leading:

IC50 [1] [nM] | IC50 [2] [nM] | IC50 [3] [nM] | Compound
1550 | 44 | > 10000 | COCCCn1nccc1Nc1nccc(-c2cc(C#N)c3c(c2)[C@](C)(CO)CN3)n1 [Compound 47]
89 | 5.1 | 263 | CC(C)n1ccc(Nc2nccc(-c3cc(C#N)c4c(c3)[C@@](C)(CO)CN4)n2)n1 [Compound 48]
316 | 3.8 | > 10000 | Cn1nc(Nc2nccc(-c3cc(C#N)c4c(c3)C(C)(CO)CN4)n2)cc1C(=O)NC1CCOCC1 (stereo not drawn) [Compound 50]
851 | 3.5 | ~5010 | CNC(=O)c1nn(C)cc1Nc1nccc(-c2cc(C#N)c3c(c2)[C@@](C)(CO)CN3)n1 [Compound 53]
525 | 11 | > 10000 | COCCCn1nc(C)cc1Nc1nccc(-c2cc(C#N)c3c(c2)[C@](C)(CO)CN3)n1 [Compound 54]
59 | 4.4 | ~2040 | Cc1cc(Nc2nccc(-c3cc(C#N)c4c(c3)[C@@](C)(CO)CN4)n2)n(CC(C)C)n1 [Compound 55]
~363 | 3.1 | ~1410 | CNC(=O)c1cc(Nc2nccc(-c3cc(C#N)c4c(c3)[C@@](C)(CO)CN4)n2)n(C)n1 [Compound 56]
~933 | 28 | > 10000 | COCCn1nc(C)cc1Nc1nccc(-c2cc(C#N)c3c(c2)[C@](C)(CO)CN3)n1 [Compound 57]
69 | 1.5 | 468 | COC(C)(C)CCn1nc(Nc2nccc(-c3cc(C#N)c4c(c3)[C@@](C)(CO)CN4)n2)cc1C [Compound 58]
68 | 5 | 1950 | COC(C)(C)CCn1nc(C)cc1Nc1nccc(-c2cc(C#N)c3c(c2)[C@@](C)(CO)CN3)n1 [Compound 59]
162 | 4.4 | 355 | Cc1cc(Nc2nccc(-c3cc(C#N)c4c(c3)[C@@](C)(CO)CN4)n2)n(CC2CCOCC2)n1 [Compound 61]
204 | 23 | 269 | Cc1cc(Nc2nccc(-c3cc(C#N)c4c(c3)[C@@](C)(CO)CN4)n2)n(C2CCN(C)CC2)n1 [Compound 62]
692 | 9.8 | 6310 | Cc1cc(Nc2nccc(-c3cc(C#N)c4c(c3)[C@@](C)(CO)CN4)n2)n(C2CCOCC2)n1 [Compound 63]
240 | 1.9 | 3240 | Cn1cc(Nc2nccc(-c3cc(C#N)c4c(c3)[C@@](C)(CO)CN4)n2)c(C(F)(F)F)n1 [Compound 64]
~1410 | 10 | > 10000 | CC(C)(c1cc(Nc2nccc(-c3cc(C#N)c4c(c3)[C@@](C)(CO)CN4)n2)[nH]n1)S(C)(=O)=O [Compound 65]
324 | 13 | > 10000 | COCCn1nc(C2CCOCC2)cc1Nc1nccc(-c2cc(C#N)c3c(c2)[C@@](C)(CO)CN3)n1 [Compound 66]
141 | 1.6 | 912 | Cn1nc(C2CCOCC2)cc1Nc1nccc(-c2cc(C#N)c3c(c2)[C@@](C)(CO)CN3)n1 [Compound 67]
324 | 3 | ~3890 | Cc1nn(C2CCOCC2)cc1Nc1nccc(-c2cc(C#N)c3c(c2)[C@@](C)(CO)CN3)n1 [Compound 74]
2090 | 13 | ~6030 | Cc1nn(CC2CCOCC2)cc1Nc1nccc(-c2cc(C#N)c3c(c2)[C@@](C)(CO)CN3)n1 [Compound 75]
2240 | 8.3 | > 10000 | Cc1cc(Nc2nccc(-c3cc(C#N)c4c(c3)[C@@](C)(CO)CN4)n2)n(CC(=O)N(C)C(C)C)n1 [Compound 79]
